Laboratory results as given in article PMC4865917, “Positive Allosteric Modulation of the Glucagon-like Peptide-1 Receptor by Diverse Electrophiles” (The Journal of Biological Chemistry, 2016).
Read-outs that look alike come from different tables or passages of the source.

Experiments:
[1] = target: T1, human GLP-1R (Homo sapiens, UniProt P43220); assay: HTRF cAMP accumulation, HEK293 cells; type: cell-based
T1 construct: gene GLP1R; full-length receptor expressed in HEK293 cells; C347A mutant carries a 1xFLAG tag
T1 sequence (P43220 24-463): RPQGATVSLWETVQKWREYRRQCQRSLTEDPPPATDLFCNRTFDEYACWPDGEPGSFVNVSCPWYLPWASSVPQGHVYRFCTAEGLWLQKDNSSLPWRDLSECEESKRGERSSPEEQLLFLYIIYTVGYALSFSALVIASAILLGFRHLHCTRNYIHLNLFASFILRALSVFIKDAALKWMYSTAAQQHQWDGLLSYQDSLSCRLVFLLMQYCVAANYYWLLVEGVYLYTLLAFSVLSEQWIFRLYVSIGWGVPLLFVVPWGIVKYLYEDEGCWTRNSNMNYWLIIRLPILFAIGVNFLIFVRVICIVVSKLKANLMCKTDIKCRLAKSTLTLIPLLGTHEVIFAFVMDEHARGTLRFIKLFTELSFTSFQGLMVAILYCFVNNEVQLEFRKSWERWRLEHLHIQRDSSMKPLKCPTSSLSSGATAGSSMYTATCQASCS
Text: (§1) HTRF cAMP accumulation, HEK293 cells on human GLP-1R

[2] = target: T2, human GLP-1R (Homo sapiens, UniProt P43220, C347A); assay: HTRF cAMP accumulation, HEK293 cells; type: cell-based
T2 construct: gene GLP1R; full-length receptor expressed in HEK293 cells; C347A mutant carries a 1xFLAG tag
T2 sequence (P43220 24-463 C347A): as the sequence (P43220 24-463) above, with C324A counted along it
Text: as §1

[3] = target: T3, human CatL (Homo sapiens, UniProt P07711); assay: fluorogenic Z-Phe-Arg-AMC hydrolysis; type: biochemical
T3 construct: gene CTSL; commercial cathepsin L (Calbiochem)
T3 sequence (P07711 114-288 limits assumed): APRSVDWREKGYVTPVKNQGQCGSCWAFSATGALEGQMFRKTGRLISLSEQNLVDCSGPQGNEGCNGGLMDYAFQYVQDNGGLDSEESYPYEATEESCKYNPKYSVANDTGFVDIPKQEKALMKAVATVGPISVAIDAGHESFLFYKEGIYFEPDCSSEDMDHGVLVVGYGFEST
T3 sequence (P07711 292-333 limits assumed): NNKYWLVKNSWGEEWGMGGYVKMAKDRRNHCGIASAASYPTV

[4] = target: T1, human GLP-1R; assay: anti-FLAG immunoprecipitation, PAGE fluorography; type: cell-based; conditions: 500 nM [3H]BETP, 2 h, 37 °C, GLP-1R-3xFLAG in HEK293; covalent; labelled compound
[5] = read-out: Compound, EC50 WT (nM) (S.D., n)
[6] = read-out: EC50, C347A (nM) (S.D., n)
[7] = read-out: Compound, EC50, C347A (nM) (S.D., n)
[8] = read-out: Compound, EC50, WT (nM) (S.D., n)

SMILES | EC50 [1, 5] [nM] | EC50 [2, 6] [nM] | IC50 ([3]; read-out: CatL,^c IC50) [µM] | EC50 [2, 7] [nM] | further results
CCSc1nc(-c2cccc(OCc3ccccc3)c2)cc(C(F)(F)F)n1 [th-BETP, 4-(3-benzyloxyphenyl)-2-ethylsulfanyl-6-(trifluoromethyl)pyrimidine] | > 30000 |  |  |  | 
Cc1nnc(Sc2nc3cc(Cl)c(Cl)cc3nc2C(F)(F)F)s1 [compound 1] | 860 | > 30000 |  |  | 
O=C(NCc1ccccc1)[C@H](Cc1ccccc1)NC(=O)[C@H]1O[C@@H]1C(=O)NCCc1ccc(O)cc1 [CAA0225, (2S,3S)-N2-[(1S)-1-benzyl-2-(benzylamino)-2-oxo-ethyl]-N3-[2-(4-hydroxyphenyl)ethyl]oxirane-2,3-dicarboxamide, reference compound] |  |  |  |  | IC50 ([3]; read-out: IC50): 0.006 µM
O=[N+]([O-])c1ccc2nc(S(=O)(=O)c3ccc(Cl)cc3)sc2c1 [compound 17] |  |  | 8 | > 30000 | 
CC[S+]([O-])c1nc(-c2cccc(OCc3ccccc3)c2)cc(C(F)(F)F)n1 (centres unmarked) [BETP, 4-(3-benzyloxyphenyl)-2-ethylsulfinyl-6-(trifluoromethyl)pyrimidine] | 1300 | > 30000 | > 33 |  | anti-FLAG immunoprecipitation, PAGE fluorography [4]: The finding that [^3H]BETP irreversibly labels the GLP-1R
FC(F)(F)c1nc2ccccc2nc1Sc1ccc(Cl)cc1 [compound 7] | > 30000 |  |  |  | 
FC(F)(F)c1nc2cc(Cl)c(Cl)cc2nc1Cl [compound 3] | 4700 | > 30000 |  |  | 
CC1(C)CC(=O)c2c(S(C)(=O)=O)sc(-c3nnc(-c4ccc(C(C)(C)C)cc4)o3)c2C1 [compound 5] | 1500 | > 30000 |  |  | 
CC(=O)NC1=C(Cl)C(=O)c2ccccc2C1=O [compound 18] |  |  |  | > 30000 | 
O=C(Oc1cccc(-c2cn3cc(C(F)(F)F)cc(Cl)c3n2)c1)C1CCCCC1 [compound 8] | > 30000 |  |  |  | 
Clc1nc2c(-c3ccccc3)nnn2c2ccccc12 [compound 11] |  |  | > 33 | > 30000 | EC50 [1, 8]: 7000 nM
CC(C)(C)Nc1nc2cc(Cl)c(Cl)cc2nc1S(C)(=O)=O [compound 2] | 25 | > 30000 |  |  | 
Clc1nc2ccc3nsnc3c2nc1Cl [compound 14] |  |  | > 33 | > 30000 | 
CC1(C)CC(=O)c2c(S(C)(=O)=O)sc(C(=O)c3ccc(-c4ccccc4)cc3)c2C1 [compound 6] | 1430 | > 30000 |  |  | 
CS(=O)(=O)c1nc(-c2ccccc2)cc(-c2ccccc2)c1C#N [compound 12] |  |  | > 33 | > 30000 | EC50 [1, 8]: 6000 nM
CS(=NC(=O)Nc1ccc(Cl)cc1)c1sc(Cl)c2c1C(=O)CCC2 (centres unmarked) [compound 16] |  |  | 12 | > 30000 | EC50 [1, 8]: 5200 nM
CCOC(=O)c1ccc(N2Cc3ccccc3C(=Cc3ccc(Br)cc3)C2=N)cc1 [compound 13] |  |  | > 33 | > 30000 | EC50 [1, 8]: 1000 nM
O=C1C=CC(=O)N1c1cccc(C(F)(F)F)c1 [compound 19] |  |  |  | > 30000 | 
Cc1ccc(-c2cccc(C(=O)NC(Cc3ccc(-c4noc(-c5ccc(NC(=O)OC(C)(C)C)cc5)n4)c(F)c3)C(=O)O)c2)cc1 (centres unmarked) [compound 9] | 1500 | 1400 |  |  | 
O=S(=O)(c1ccccc1)c1nc(-c2ccccc2)ns1 [compound 15] |  |  | 25 | > 30000 | EC50 [1, 8]: 1300 nM
